Results on one compound are retold here after patent US8178669B2, “Fluorescent probe for peroxynitrite” (The University of Tokyo, priority 2005, dated 2012).

Assay [1] can be described thus: Reaction of Compound 4 and various reactive oxygen species: hydroxyl radical. The note with it: 10 μmol/L Compound 4, pH 7.4; hydrogen peroxide 1 mmol/L and iron(II) sulfate 50 μmol/L, 3 minutes. As for the experimental part: (§1) A 10 μmol/L solution of Compound 4 was prepared by diluting a 20 mmol/L solution of Compound 4 in DMF with a 100 mmol/L phosphate buffer (pH 7.4), and used for the test. The prepared solution was treated under the following conditions for 3 minutes (except for (f), for which treatment time was 30 minutes).
(d) Hydrogen peroxide and iron(II) sulfate were added to make final concentrations of 1 mmol/L and 50 μmol/L, respectively.
(§2) After the reaction, change of fluorescence spectrum under each condition was measured to compare reactivities of the compound with (#2) peroxynitrite, (#3) hydrogen peroxide, (#4) singlet oxygen, (#5) hydroxyl radical, (#6) hypochlorite ion, and (#7) nitrogen monoxide.

A short description of assay [2]: Reaction of Compound 4 and various reactive oxygen species: hydrogen peroxide. As to conditions: 10 μmol/L Compound 4, pH 7.4; hydrogen peroxide 1 mmol/L, 3 minutes. As to the method:
as §1
(b) Hydrogen peroxide was added to make a final concentration of 1 mmol/L.
as §2

The nature of assay [3]: Reaction of Compound 4 and various reactive oxygen species: singlet oxygen. The note with it: 10 μmol/L Compound 4, pH 7.4; hydrogen peroxide 1 mmol/L and hypochlorite ions 100 μmol/L, 3 minutes. As for the experimental part: as §1
(c) Hydrogen peroxide and hypochlorite ions were added to make final concentrations of 1 mmol/L and 100 μmol/L, respectively.
as §2

Assay [4] in a line: Reaction of Compound 4 and various reactive oxygen species: hypochlorite ion. The note with it: 10 μmol/L Compound 4, pH 7.4; hypochlorite ions 10 μmol/L, 3 minutes. As for the experimental part: as §1
(e) Hypochlorite ions were added to make a final concentration of 10 μmol/L.
as §2

The nature of assay [5]: Reaction of Compound 4 and various reactive oxygen species: nitrogen monoxide. The note with it: 10 μmol/L Compound 4, pH 7.4; NOC-13 100 μmol/L, 30 minutes. As to the method: as §1
(f) NOC-13 (nitrogen monoxide discharging agent, Dojindo Laboratory) was added to make a final concentration of 100 μmol/L.
as §2

Assay [6] can be described thus: Reaction of Compound 4 and various reactive oxygen species: peroxynitrite. As for the experimental part: as §1
(a) Peroxynitrite was added to make a final concentration of 10 μmol/L.
as §2

A short description of assay [7]: Reaction of Compound 4 and peroxynitrite (fluorescence spectrum). As to conditions: 10 μmol/L Compound 4, 100 mmol/L phosphate buffer pH 7.4; peroxynitrite 1-50 μmol/L; after 60 seconds; excitation 505 nm. As to the method:
A 10 μmol/L solution of Compound 4 was prepared by diluting a 20 mmol/L solution of Compound 4 in DMF with a 100 mmol/L phosphate buffer (pH 7.4). The solution was added with peroxynitrite solutions of 2 mmol/L, 5 mmol/L, 10 mmol/L, 20 mmol/L and 80 mmol/L at peroxynitrite final concentrations of 1, 2, 4, 5, 10, 20 or 50 μmol/L with stirring, and after 60 seconds, fluorescence spectrum was measured (excitation wavelength: 505 nm).

Another assay concerns HeLa cells. Nature of the assay: Imaging of peroxynitrite using Compound 4 in HeLa cells. The format is cell-based. As to conditions: HeLa cells loaded with 2 μmol/L Compound 4, 20 minutes; peroxynitrite 10 μmol/L; excitation 470 to 490 nm, emission 510 to 550 nm. As to the method:
HeLa cells were precultured in Dulbecco's modified Eagle's medium (DMEM) supplemented with 10% (v/v) fetal bovine serum, penicillin (100 units/mL), and streptomycin (100 μg/mL) in a 5% CO2 incubator. These HeLa cells were inoculated on a 35 mm glass bottom dish (MatTek Corporation), and further cultured overnight in DMEM. After 24 hours, the medium was removed, and the HeLa cells were washed with Hank's balanced salt solution (HBSS, 2×1 mL). The HeLa cells were added with 2 mL of 2 μmol/L solution of Compound 4 in HBSS (containing 0.01% DMF and 0.01% Cremophor EL (SIGMA) as auxiliary solvents), and incubated at room temperature for 20 minutes. Then, the HeLa cells were washed with HBSS (2×1 mL). Fluorescence images before addition of peroxynitrite and after addition of peroxynitrite at a final concentration of 10 μmol/L were photographed at an excitation wavelength of 470 to 490 nm and fluorescence emission wavelength of 510 to 550 nm.
Among the photographs, (A) is a differential interference microscope image of HeLa cells loaded with Compound 4, (B) is a pseudo color fluorescence image of fluorescence intensity before addition of peroxynitrite, (C) is a pseudo color fluorescence image of fluorescence intensity after addition of peroxynitrite, and (D) is a fused image of (A) and (B).

On to `CC1=C(C#N)C(C)=[N+]2C1=C(c1ccc(O)cc1OCC(=O)O)c1c(C)c(C#N)c(C)n1[B-]2(F)F` [Compound 4, 2,6-dicyano-8-(4-hydroxy-2-carboxymethoxyphenyl)-1,3,5,7-tetramethyl-4,4-difluoro-4-bora-3a,4a-diaza-s-indacene], for which the “fluorescence after addition of hydroxyl radical” value in assay [1] was “did not emit fluorescence at all”. The “fluorescence after addition of hydrogen peroxide” value in assay [2] was “did not emit fluorescence at all”. The “fluorescence after addition of singlet oxygen” value in assay [3] was “did not emit fluorescence at all”. For the same compound, the “fluorescence after addition of hypochlorite ion” value in assay [4] is recorded as “did not emit fluorescence at all”. Further, the “fluorescence after addition of nitrogen monoxide” value in assay [5] is listed as “did not emit fluorescence at all”. For the same compound, the “fluorescence after addition of peroxynitrite” value in assay [6] (10 μmol/L Compound 4, pH 7.4, peroxynitrite 10 μmol/L, 3 minutes) is recorded as “emitted intense fluorescence”. Moreover, the “selectivity to peroxynitrite over other reactive oxygen species” value in assay [6] (compared with hydrogen peroxide, singlet oxygen, hydroxyl radical, hypochlorite ion, nitrogen monoxide) was “high selectivity to peroxynitrite”. Besides, the “change of fluorescence intensity on addition of peroxynitrite” value in assay [7] is reported as “peroxynitrite addition amount-dependent increase in fluorescence intensity was observed”. Besides, the “fluorescence imaging of peroxynitrite in cells” value in the assay on HeLa cells is recorded as “fluorescence imaging of peroxynitrite was performable”.
